# Measured values: PMC12018048, “Intranasal kisspeptin administration rapidly stimulates gonadotropin release in humans” (eBioMedicine, 2025)
# Legend:
# plasma LH = assay: Intranasal kisspeptin-54, plasma LH in adult C57BL/6J male mice; type: in vivo, mouse; details: for Peak plasma LH level / Integrated LH response, AUC: mean ± SEM; for Peak plasma LH level, mean difference vs placebo: two-way ANOVA; for Integrated LH response, AUC: sampling over 70 min
# Description: Saline (placebo) or kisspeptin-54 were intranasally administered using a customised and unsharpened 2 mm long and 0.3 mm wide hypodermic needle (BD PrecisionGlide™; 30G; ref. 305106). Male mice were restrained and a single volume of 30 μL of the solution was delivered in one randomly chosen nostril with either 0.9% saline or different concentrations of kisspeptin-54 (1, 3, 12.8, 30, or 50 nM; equivalent to 0.001–0.05 nmol/kg). The protocol involved N = 5 mice per group, except concentrations 12.8 nM where N = 6 and 30 nM where N = 7. […] LH levels were assessed using a tail-tip serial blood sampling as previously reported.[64]^,[65] Briefly, samples containing 4 μL of whole blood were collected every 10 min over a 70-min-long period from each animal. The first sampling point was taken as baseline LH level (−5 min), and saline or kisspeptin-54 were administered at timepoint 0 min. Whole blood was collected into Eppendorf tubes pre-loaded with 50 μL of 0.1 M phosphate-buffered saline (PBS)-0.05% Tween, thoroughly mixed, and snap-frozen with dry ice and stored at −80 °C.
# LH levels were measured using an established in-house and ultrasensitive mouse LH ELISA method as previously validated.[66] A primary coating antibody (bovine LHβ subunit, 518B7; L. Sibley; University of California, UC Davis, RRID AB_2756886) was used at a 1:1000 dilution in combination with a detection primary antibody (rabbit LH antiserum, AFP240580Rb, RRID AB_2665533; NIDDK- NHPP) used at 1:10,000 dilution, and a secondary horseradish peroxidase-conjugated antibody (goat anti-rabbit; Vector Laboratories, PI-1000, RRID AB_2336198) used at 1:10,000 dilution. The assay standard curve used a mouse LH-RP (AFP5306A, A. F. Parlow, National Hormone and Peptide Program; supplied by Golden West BioSolutions, California, USA; catalogue # TLIA1053.03). The assay sensitivity of this LH ELISA was 0.04 ng/mL, intra-assay coefficient of variation 4.1%, and inter-assay coefficient of variation 7.3%.
# Statistical analyses were performed using GraphPad Prism (version 9.4.1). Data are presented as mean ± SEM. Normality of the data was determined using the Shapiro–Wilk test. The analysis considered increment in LH levels when average post-administration values were above significance (P < 0.05) compared to basal levels (−5 min) using repeated measures two-way ANOVA with Fishers least significant difference (LSD) test. Integrated LH response to kisspeptin-54 administration as indicated using the area under the curve (AUC) analysis when all peaks were above baseline values. The difference in AUC between groups was compared by one-way ANOVA with Fisher’s LSD test. In all cases, P < 0.05 was considered statistically significant.
# [1] = Stability of kisspeptin-54 solutions for nasal delivery; type: physicochemical; details: for Reduction of the initial concentration: after 60 days, HPLC; for % of initial concentration: chemical stability, 3.5 mg/mL in 0.9% saline, HPLC-UV 220 nm, mean ± SEM, N = 3
# Description: Kisspeptin-54 3.5 mg/mL solutions, equivalent to the lowest dose used in the human clinical study, were prepared and aliquoted into glass nasal spray devices and sealed amber glass vials (airtight, light protected control). The test materials were stored upright in a single location (4 °C refrigerator with temperature monitoring) with minimal manipulation or movement for 60 days. On each day of analysis, three aliquots were sampled from each container and analysed by HPLC.
# Each kisspeptin-54 sample was assayed in triplicate using a Waters 2795 Separation Module HPLC equipped with Waters 2996 Photodiode Array Detector and a Luna® 3 μm C18 100 Å LC Column 150 × 4.6 mm with trimethylsilyl (TMS) end capping used. Injection volume was 25 μL and the mobile phase was a gradient using eluent A (0.05% trifluoroacetic acid (TFA):1% acetonitrile (ACN): 98.95% H20) and eluent B (0.05% TFA in MeOH/ACN 1:1(V/V)) from 20 to 60% eluent B with a flow rate of 1 mL/min and a run time of 15 min. Column temperature was set at 40 °C and ultraviolet (UV) detection at 220 nm. The assay was validated for linearity (r = 0.993), accuracy and precision in the range 0.3–0.7 mg/mL.
# [2] = Kisspeptin-54 powder particle size and shape analysis (Morphologi 4); type: physicochemical
# Description: Particle size and shape analysis of the kisspeptin-54 powder was performed using a Morphologi 4 (Malvern Instruments, Worcestershire, UK). Particles were readily dispersed using the dispersion unit at low energy level. Bright field illumination was used for microscopic visualisation of the particles with the light intensity calibrated to 70%. The samples were scanned using the 20× objective lens over a scan area of 4.5 mm by 4.5 mm with a trash size of 10 pixels.
# [3] = Stability of kisspeptin-54 solutions for nasal delivery; type: physicochemical; details: 2 M HCL or phosphate buffer at 60 °C for 72 h, HPLC-UV
# serum LH = details: cited from earlier work
# Description: This was the first study to examine the effects of intranasal kisspeptin administration on reproductive hormone secretion in humans. […] We have previously examined a single intravenous bolus of 6.4, 12.8, and 25.6 nmol/kg of kisspeptin-54 in healthy men.[59] In that study, peak LH levels occurred 4–6 h after intravenous kisspeptin administration with a maximal increase from baseline of 8–10 IU/L for the three doses tested.[59] In the current study, a far more rapid increase in serum LH was observed after intranasal kisspeptin for all four doses tested with peak LH stimulation (4.45 IU/L abo ...
substance,measurement,setting,value
Kisspeptin-54,"LH AUC, mean difference vs kisspeptin 1 nM",plasma LH; intranasal 3 nM vs 1 nM,3.6 ng·h/mL
same,Time of peak LH level after intranasal administration,plasma LH; intranasal 12.8 nM,25 min
same,"LH AUC, mean difference vs kisspeptin 1 nM",plasma LH; intranasal 12.8 nM vs 1 nM,22.7 ng·h/mL
same,"LH AUC, mean difference vs kisspeptin 3 nM",plasma LH; intranasal 12.8 nM vs 3 nM,19.1 ng·h/mL
same,"LH AUC, mean difference vs placebo",plasma LH; intranasal 12.8 nM vs placebo,17.2 ng·h/mL
same,Peak plasma LH level,"plasma LH; intranasal 12.8 nM, at 25 min, N = 6",1.9 ± 0.4 ng/mL
same,"Peak plasma LH level, mean difference vs placebo","plasma LH; intranasal 12.8 nM, at 25 min",1.1 ng/mL
same,Time of peak LH level after intranasal administration,plasma LH; intranasal 30 nM,25 min
same,"LH AUC, mean difference vs kisspeptin 1 nM",plasma LH; intranasal 30 nM vs 1 nM,74.2 ng·h/mL
same,"LH AUC, mean difference vs kisspeptin 3 nM",plasma LH; intranasal 30 nM vs 3 nM,70.7 ng·h/mL
same,"LH AUC, mean difference vs kisspeptin 12.8 nM",plasma LH; intranasal 30 nM vs 12.8 nM,51.6 ng·h/mL
same,"LH AUC, mean difference vs placebo",plasma LH; intranasal 30 nM vs placebo,68.7 ng·h/mL
same,Peak plasma LH level,"plasma LH; intranasal 30 nM, at 25 min, N = 7",3.6 ± 0.4 ng/mL
same,"Peak plasma LH level, mean difference vs placebo","plasma LH; intranasal 30 nM, at 25 min",2.8 ng/mL
same,Time of peak LH level after intranasal administration,plasma LH; intranasal 50 nM,15 min
same,"LH AUC, mean difference vs kisspeptin 1 nM",plasma LH; intranasal 50 nM vs 1 nM,92.8 ng·h/mL
same,"LH AUC, mean difference vs kisspeptin 3 nM",plasma LH; intranasal 50 nM vs 3 nM,89.3 ng·h/mL
same,"LH AUC, mean difference vs kisspeptin 12.8 nM",plasma LH; intranasal 50 nM vs 12.8 nM,70.2 ng·h/mL
same,"LH AUC, mean difference vs kisspeptin 30 nM",plasma LH; intranasal 50 nM vs 30 nM,18.6 ng·h/mL
same,"LH AUC, mean difference vs placebo",plasma LH; intranasal 50 nM vs placebo,87.3 ng·h/mL
same,Peak plasma LH level,"plasma LH; intranasal 50 nM, at 15 min, N = 5",4.0 ± 1.0 ng/mL
same,"Peak plasma LH level, mean difference vs placebo","plasma LH; intranasal 50 nM, at 15 min",2.9 ng/mL
same,"Integrated LH response, AUC","plasma LH; intranasal 30 μL of 1 nM, N = 5",75.5 ± 6.3 ng·h/mL
same,"Integrated LH response, AUC","plasma LH; intranasal 30 μL of 3 nM, N = 5",79.1 ± 5.8 ng·h/mL
same,"Integrated LH response, AUC","plasma LH; intranasal 30 μL of 12.8 nM, N = 6",98.2 ± 15.5 ng·h/mL
same,"Integrated LH response, AUC","plasma LH; intranasal 30 μL of 30 nM, N = 7",149.7 ± 13.3 ng·h/mL
same,"Integrated LH response, AUC","plasma LH; intranasal 30 μL of 50 nM, N = 5",168.3 ± 38.5 ng·h/mL
same,"Adverse effects leading to pain, distress, or illness","plasma LH; intranasal, first 72-h follow-up period",did not observe any adverse effects
same,Time within pharmaceutically accepted limits for stability,"[1]; 0.9% saline solution, 4 °C",up to 60 days
same,Appearance of the solution (clear when freshly made),"[1]; 0.9% saline, 4 °C, 60 days of storage, either container type",no change was observed
same,Reduction of the initial concentration,"[1]; 0.9% saline, 4 °C, glass nasal spray devices",5.4%
same,Reduction of the initial concentration,"[1]; 0.9% saline, 4 °C, sealed amber glass vials",5.0%
same,% of initial concentration,"[1]; 4 °C in nasal spray, 4 days",98.06 ± 1.11%
same,% of initial concentration,"[1]; 4 °C in nasal spray, 7 days",98.28 ± 0.69%
same,% of initial concentration,"[1]; 4 °C in nasal spray, 14 days",97.90 ± 0.67%
same,% of initial concentration,"[1]; 4 °C in nasal spray, 28 days",96.11 ± 0.51%
same,% of initial concentration,"[1]; 4 °C in nasal spray, 60 days",94.56 ± 1.67%
same,% of initial concentration,"[1]; 4 °C in sealed amber vial, 4 days",98.94 ± 0.57%
same,% of initial concentration,"[1]; 4 °C in sealed amber vial, 7 days",98.69 ± 0.58%
same,% of initial concentration,"[1]; 4 °C in sealed amber vial, 14 days",97.91 ± 0.64%
same,% of initial concentration,"[1]; 4 °C in sealed amber vial, 28 days",97.32 ± 0.56%
same,% of initial concentration,"[1]; 4 °C in sealed amber vial, 60 days",95.01 ± 1.45%
same,Particle shape,[2]; Morphologi 4,irregular-shaped particles
same,Proportion of particles in the 20–50 μm range,[2]; Morphologi 4,over 40%
same,Circular equivalent diameter range of powder particles,"[2]; Morphologi 4, N = 55,421 particles",0.5–113 μm
same,Powder particle size range (particles largely within),[2]; Morphologi 4 static automated imaging,10–110 μm
same,Forced degradation (HPLC assay specificity),[3],loss or reduction of the kisspeptin peak
same,Maximal increase from baseline in LH,"serum LH; healthy men, single intravenous bolus of 6.4, 12.8, and 25.6 nmol/kg",8–10 IU/L
same,"Increase in serum LH, mean","serum LH; healthy volunteers, intravenous, standard deviation 0.4 IU/L",10.2 IU/L
